According to US20230242585A1, “IMMUNOMODULATORS” (Bristol-Myers Squibb Company, priority 2020, published 2023):
Starred links: 1 amine or outer side, 2 acyl side, 3 side chain; linkers in the order of their positions; H or OH if unused. Positions of bridges follow the written chain, without caps; N, C: chain ends. Non-standard residues stand in square brackets, D forms with d. Residues, ends and D or L forms follow the SMILES beside them. X44 = O=C([C@H](CCNC[C@@H](O)[C@H](O)[C@@H](O)[C@@H](O)CO)N[*:1])[*:2]; X43 = O=C([C@H](CNC[C@@H](O)[C@H](O)[C@@H](O)[C@@H](O)CO)N[*:1])[*:2]; X63 = O=C([C@H](CCNC[C@H](O)[C@@H](O)[C@@H](O)[C@H](O)CO)N[*:1])[*:2]; X9 = O=C([C@H](CCNC[C@@H](O)[C@@H](O)[C@@H](O)[C@H](O)CO)N[*:1])[*:2]; X11 = O=C([C@H](CNC[C@H](O)[C@@H](O)[C@@H](O)[C@H](O)CO)N[*:1])[*:2]; X8 = O=C([C@H](CNC[C@@H](O)[C@@H](O)[C@@H](O)[C@H](O)CO)N[*:1])[*:2]; Trp(1-CH2COOH) = N[C@@H](Cc1cn(CC(=O)O)c2ccccc12)C(=O)O; X20 = O=C([C@H](CNCc1nccc2ccccc12)N[*:1])[*:2]; Hyp = O=C(O)[C@@H]1C[C@@H](O)CN1; NMeNle = CCCC[C@H](NC)C(=O)O; NMeA = CN[C@@H](C)C(=O)O; Dab = NCC[C@H](N)C(=O)O

Each compound was assayed against T1, PD-1/PD-L1 (Homo sapiens, UniProt Q9NZQ7) (assay: PD-1/PD-L1 Homogenous Time-Resolved Fluorescence (HTRF) binding assay). Conditions: PD-L1-His 10 nM, PD-1-Ig 20 nM.
T1 construct: TVMV protease site (linker) (C); made in house; host or cells: HEK293T cells
From the text: The ability of the compounds of formula (I) to bind to PD-L1 was investigated using a PD-1/PD-L1 Homogenous Time-Resolved Fluorescence (HTRF) binding assay.
The interaction of PD-1 and PD-L1 can be assessed using soluble, purified preparations of the extracellular domains of the two proteins. The PD-1 and PD-L1 protein extracellular domains were expressed as fusion proteins with detection tags, for PD-1, the tag was the Fc portion of Immunoglobulin (PD-1-Ig) and for PD-L1 it was the 6 histidine motif (PD-L1-His). All binding studies were performed in an HTRF assay buffer consisting of dPBS supplemented with 0.1% […] bovine serum albumin and 0.05% (v/v) Tween-20. For the h/PD-L1-His binding assay, inhibitors were pre-incubated with PD-L1-His (10 nM final) for 15 m in 4 µl of assay buffer, followed by addition of PD-1-Ig (20 nM final) in 1 µl of assay buffer and further incubation for 15 m. HTRF detection was achieved using europium crypate-labeled anti-Ig (1 nM final) and allophycocyanin (APC) labeled anti-His (20 nM final). Antibodies were diluted in HTRF detection buffer and 5 µl was dispensed on top of the binding reaction. The reaction mixture was allowed to equilibrate for 30 minutes and the resulting signal (665 nm/620 nm ratio) was obtained using an EnVision fluorometer. Additional binding assays were established between the human proteins PD-1-Ig/PD-L2-His (20 & 5 nM, respectively) and CD80-His/PD-L1-Ig (100 & 10 nM, respectively).
Recombinant Proteins: Human PD-1 (25-167) with a C-terminal human Fc domain of immunoglobulin G (Ig) epitope tag [hPD-1 (25-167)-3S-IG] and human PD-L1 (18-239) with a C-terminal His epitope tag [hPD-L1(18-239)-TVMV-His] were expressed in HEK293T cells and purified sequentially by ProteinA affinity chromatography and size exclusion chromatography. Human PD-L2-His and CD80-His was obtained through commercial sources.
Table 1 lists the IC50 values for representative examples of this disclosure measured in the PD-1/PD-L1 Homogenous Time-Resolved Fluorescence (HTRF) binding assay.

T1 sequence (Q9NZQ7 18-239): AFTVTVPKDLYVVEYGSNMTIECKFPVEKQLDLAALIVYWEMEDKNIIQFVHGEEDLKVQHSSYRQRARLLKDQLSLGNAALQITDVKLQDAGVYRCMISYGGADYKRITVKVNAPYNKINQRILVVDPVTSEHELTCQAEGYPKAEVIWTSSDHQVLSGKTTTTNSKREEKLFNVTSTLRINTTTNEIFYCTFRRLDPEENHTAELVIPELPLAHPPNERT

Compound | IC50
CCCC[C@H]1C(=O)N(C)[C@@H](CCCC)C(=O)N[C@@H](CC(C)C)C(=O)N[C@H](C(=O)NCC(N)=O)CSCC(=O)N[C@@H](Cc2ccc(O)cc2)C(=O)N(C)[C@@H](C)C(=O)N[C@@H](CC(N)=O)C(=O)N2CCC[C@H]2C(=O)N[C@@H](CNC[C@H](O)[C@@H](O)[C@@H](O)[C@H](O)CO)C(=O)N[C@@H](CC(C)C)C(=O)N2C[C@H](O)C[C@H]2C(=O)N[C@@H](Cc2c[nH]c3ccccc23)C(=O)N[C@@H](CCNC[C@H](O)[C@@H](O)[C@@H](O)[C@H](O)CO)C(=O)N[C@@H](Cc2cn(CC(=O)O)c3ccccc23)C(=O)N1C [Example 2026] ({CH2CO}-Y[NMeA]NP[X11]L[Hyp]W[X63][Trp(1-CH2COOH)][NMeNle][NMeNle]LCG-NH2; thioether N-14) | 1.8 nM
CCCC[C@H]1C(=O)N(C)[C@@H](CCCC)C(=O)N[C@@H](CC(C)C)C(=O)N[C@H](C(=O)NCC(N)=O)CSCC(=O)N[C@@H](Cc2ccc(O)cc2)C(=O)N(C)[C@@H](C)C(=O)N[C@@H](CC(N)=O)C(=O)N2CCC[C@H]2C(=O)N[C@@H](CNC[C@H](O)[C@@H](O)[C@@H](O)[C@H](O)CO)C(=O)N[C@@H](CC(C)C)C(=O)N2C[C@H](O)C[C@H]2C(=O)N[C@@H](Cc2c[nH]c3ccccc23)C(=O)N[C@@H](CCN)C(=O)N[C@@H](Cc2cn(CC(=O)O)c3ccccc23)C(=O)N1C [Example 2017] ({CH2CO}-Y[NMeA]NP[X11]L[Hyp]W[Dab][Trp(1-CH2COOH)][NMeNle][NMeNle]LCG-NH2; thioether N-14) | 7.2 nM
CCCC[C@H]1C(=O)N(C)[C@@H](CCCC)C(=O)N[C@@H](CC(C)C)C(=O)N[C@H](C(=O)NCC(N)=O)CSCC(=O)N[C@@H](Cc2ccc(O)cc2)C(=O)N(C)[C@@H](C)C(=O)N[C@@H](CC(N)=O)C(=O)N2CCC[C@H]2C(=O)N[C@@H](CNCc2nccc3ccccc23)C(=O)N[C@@H](CC(C)C)C(=O)N2C[C@H](O)C[C@H]2C(=O)N[C@@H](Cc2c[nH]c3ccccc23)C(=O)N[C@@H](CCN)C(=O)N[C@@H](Cc2cn(CC(=O)O)c3ccccc23)C(=O)N1C [Example 1018] ({CH2CO}-Y[NMeA]NP[X20]L[Hyp]W[Dab][Trp(1-CH2COOH)][NMeNle][NMeNle]LCG-NH2; thioether N-14) | 8.4 nM
CCCC[C@H]1C(=O)N(C)[C@@H](CCCC)C(=O)N[C@@H](CC(C)C)C(=O)N[C@H](C(=O)NCC(N)=O)CSCC(=O)N[C@@H](Cc2ccc(O)cc2)C(=O)N(C)[C@@H](C)C(=O)N[C@@H](CC(N)=O)C(=O)N2CCC[C@H]2C(=O)N[C@@H](CNC[C@@H](O)[C@@H](O)[C@@H](O)[C@H](O)CO)C(=O)N[C@@H](CC(C)C)C(=O)N2C[C@H](O)C[C@H]2C(=O)N[C@@H](Cc2c[nH]c3ccccc23)C(=O)N[C@@H](CCNC[C@@H](O)[C@@H](O)[C@@H](O)[C@H](O)CO)C(=O)N[C@@H](Cc2cn(CC(=O)O)c3ccccc23)C(=O)N1C [Example 2036] ({CH2CO}-Y[NMeA]NP[X8]L[Hyp]W[X9][Trp(1-CH2COOH)][NMeNle][NMeNle]LCG-NH2; thioether N-14) | 4.9 nM
CCCC[C@H]1C(=O)N(C)[C@@H](CCCC)C(=O)N[C@@H](CC(C)C)C(=O)N[C@H](C(=O)NCC(N)=O)CSCC(=O)N[C@@H](Cc2ccc(O)cc2)C(=O)N(C)[C@@H](C)C(=O)N[C@@H](CC(N)=O)C(=O)N2CCC[C@H]2C(=O)N[C@@H](CNC[C@@H](O)[C@H](O)[C@@H](O)[C@@H](O)CO)C(=O)N[C@@H](CC(C)C)C(=O)N2C[C@H](O)C[C@H]2C(=O)N[C@@H](Cc2c[nH]c3ccccc23)C(=O)N[C@@H](CCNC[C@@H](O)[C@H](O)[C@@H](O)[C@@H](O)CO)C(=O)N[C@@H](Cc2cn(CC(=O)O)c3ccccc23)C(=O)N1C [Example 2034] ({CH2CO}-Y[NMeA]NP[X43]L[Hyp]W[X44][Trp(1-CH2COOH)][NMeNle][NMeNle]LCG-NH2; thioether N-14) | 2.7 nM
